# ChEMBL document CHEMBL3822432, “Antibacterial and anticancer activity of a series of novel peptides incorporating cyclic tetra-substituted C(α) amino acids” (Bioorg Med Chem, 2016)
# Non-standard residues stand in square brackets, D forms with d. Residues, ends and D or L forms follow the SMILES beside them. Ac6c = NC1(C(=O)O)CCCCC1
# Key:
# [1] = system: Acinetobacter baumannii; assay: Potency index, ratio of Ac-GF-Tic-Oic-GK-Tic-Oic-GF-Tic-Oic-GK-Tic-KKKK-CONH2 MIC to compound MIC for Acinetobacter baumannii B5W71 ATCC 15149; assay type: functional
# [2] = system: RL; assay: Antiproliferative activity against human RL cells after 72 hrs by Celltiter-Glo luminescent cell viability assay; assay type: functional, cell-based
# [3] = Antiproliferative activity against human IGROV1 cells after 72 hrs by Celltiter-Glo luminescent cell viability assay; assay type: functional, cell-based; details: IGROV-1, 72 h
# [4] = system: Enterococcus faecium; assay: Potency index, ratio of Ac-GF-Tic-Oic-GK-Tic-Oic-GF-Tic-Oic-GK-Tic-KKKK-CONH2 MIC to compound MIC for Enterococcus faecium; assay type: functional
# [5] = system: Pseudomonas aeruginosa; assay: Potency index, ratio of Ac-GF-Tic-Oic-GK-Tic-Oic-GF-Tic-Oic-GK-Tic-KKKK-CONH2 MIC to compound MIC for Pseudomonas aeruginosa Boston 41501 ATCC 27853; assay type: functional
# [6] = system: A549; assay: Antiproliferative activity against human A549 cells after 72 hrs by Celltiter-Glo luminescent cell viability assay; assay type: functional, cell-based; details: A549, 72 h
# [7] = system: Pseudomonas aeruginosa; assay: Antibacterial activity against Pseudomonas aeruginosa Boston 41501 ATCC 27853 by two fold serial dilution method; assay type: functional
# [8] = system: Neisseria gonorrhoeae; assay: Antibacterial activity against Neisseria gonorrhoeae F-18 ATCC 49226 by two fold serial dilution method; assay type: functional
# [9] = system: A498; assay: Antiproliferative activity against human A498 cells after 72 hrs by Celltiter-Glo luminescent cell viability assay; assay type: functional, cell-based; details: A498, 72 h
# [10] = system: CFPAC-1; assay: Antiproliferative activity against human CFPAC-1 cells after 72 hrs by Celltiter-Glo luminescent cell viability assay; assay type: functional, cell-based; details: CFPAC-1, 72 h
# [11] = system: Mycobacterium tuberculosis; assay: Antibacterial activity against Mycobacterium tuberculosis H37Ra ATCC 2517 by two fold serial dilution method; assay type: functional
# [12] = Antiproliferative activity against human MIAPaCa2 cells after 72 hrs by Celltiter-Glo luminescent cell viability assay; assay type: functional, cell-based; details: MIA PaCa-2, 72 h
# [13] = Antibacterial activity against Salmonella enterica LT2 Typhimurium ATCC 15277 by two fold serial dilution method; assay type: functional
# [14] = Antibacterial activity against carbapenem-resistant Klebsiella pneumoniae K6 ATCC 700603 by two fold serial dilution method; assay type: functional, Klebsiella pneumoniae 700603
# [15] = Antiproliferative activity against human UACC62 cells after 72 hrs by Celltiter-Glo luminescent cell viability assay; assay type: functional, cell-based; details: UACC-62, 72 h
# [16] = system: Streptococcus pneumoniae; assay: Antibacterial activity against Streptococcus pneumoniae 262 ATCC 49619 by two fold serial dilution method; assay type: functional
# [17] = system: Staphylococcus aureus; assay: Antibacterial activity against Staphylococcus aureus Seattle 1945 ATCC 25923 by two fold serial dilution method; assay type: functional
# [18] = system: Klebsiella aerogenes; assay: Antibacterial activity against carbapenem-resistant Enterobacter aerogenes NCDC819-56 ATCC 13048 by two fold serial dilution method; assay type: functional
# [19] = system: Burkholderia pseudomallei; assay: Antibacterial activity against Burkholderia pseudomallei AHS 1 NCTC 8016 by two fold serial dilution method; assay type: functional
# [20] = Antiproliferative activity against human PC3 cells after 72 hrs by Celltiter-Glo luminescent cell viability assay; assay type: functional, cell-based; details: PC-3, 72 h
# [21] = system: NCI-H69; assay: Antiproliferative activity against human NCI-H69 cells after 72 hrs by Celltiter-Glo luminescent cell viability assay; assay type: functional, cell-based; details: NCI-H69, 72 h
# [22] = system: MCF7; assay: Antiproliferative activity against human MCF7 cells after 72 hrs by Celltiter-Glo luminescent cell viability assay; assay type: functional, cell-based; details: MCF7, 72 h
# [23] = Antibacterial activity against Clostridium difficile VIP 10463 ATCC 43255 by two fold serial dilution method; assay type: functional, Clostridium difficile ATCC 43255; details: Clostridioides difficile
# [24] = Antiproliferative activity against human DLD1 cells after 72 hrs by Celltiter-Glo luminescent cell viability assay; assay type: functional, cell-based; details: DLD-1, 72 h
# [25] = system: Acinetobacter baumannii; assay: Antibacterial activity against Acinetobacter baumannii B5W71 ATCC 15149 by two fold serial dilution method; assay type: functional
# [26] = Antibacterial activity against Francisella tularensis SCHU S4 NR-643 by two fold serial dilution method; assay type: functional
# [27] = Antibacterial activity against Bacillus anthracis Ames NR-3838 by two fold serial dilution method; assay type: functional, Bacillus anthracis str. Ames
# [28] = Antiproliferative activity against human COLO205 cells after 72 hrs by Celltiter-Glo luminescent cell viability assay; assay type: functional, cell-based; details: COLO 205, 72 h
# [29] = system: Klebsiella aerogenes; assay: Potency index, ratio of Ac-GF-Tic-Oic-GK-Tic-Oic-GF-Tic-Oic-GK-Tic-KKKK-CONH2 MIC to compound MIC for carbapenem-resistant Enterobacter aerogenes NCDC819-56 ATCC 13048; assay type: functional; details: pooled result: one value given for 3 cell lines, strains, targets or settings
# [30] = Antibacterial activity against Yersinia pestis CO92 NR641 by two fold serial dilution method; assay type: functional
# [31] = system: Staphylococcus aureus; assay: Antibacterial activity against methicillin-resistant Staphylococcus aureus USA 300 NRS 384 by two fold serial dilution method; assay type: functional
# [32] = system: Enterococcus faecalis; assay: Antibacterial activity against Enterococcus faecalis Portland ATCC 29212 by two fold serial dilution method; assay type: functional; details: ATCC 29212 Portland
Structure (SMILES),IC50 [2],IC50 [3],IC50 [6],MIC [7],MIC [8],IC50 [9],IC50 [10],MIC [11],IC50 [12],MIC [13],MIC [14],IC50 [15],MIC [16],MIC [17],MIC [18],MIC [19],IC50 [20],IC50 [21],IC50 [22],MIC [23],also measured
CC(=O)NCC(=O)N[C@@H](Cc1ccccc1)C(=O)NC1(C(=O)NCC(=O)N2Cc3ccccc3CC2C(=O)N[C@H](CCCCN)C(=O)NC2(C(=O)NCC(=O)N3Cc4ccccc4CC3C(=O)N[C@H](Cc3ccccc3)C(=O)NC3(C(=O)NCC(=O)N4Cc5ccccc5CC4C(=O)NCC(=O)N[C@H](CCCCN)C(=O)N4Cc5ccccc5CC4C(=O)N[C@H](CCCCN)C(=O)N[C@H](CCCCN)C(=O)N[C@H](CCCCN)C(=O)N[C@H](CCCCN)C(N)=O)CCCCC3)CCCCC2)CCCCC1 (stereo not given in full),6.8 µM,> 7.5 µM,> 7.5 µM,10.3 µM,41.3 µM,> 7.5 µM,> 7.5 µM,10.3 µM,> 7.5 µM,5.17 µM,> 43 µM,> 7.5 µM,> 43 µM,> 43 µM,> 43 µM,> 43 µM,> 7.5 µM,> 7.5 µM,> 7.5 µM,2.58 µM,Ratio [1]: 17.2; Ratio [4]: 4.3; Ratio [5]: 0.2582; IC50 [24]: > 7.5 µM; MIC [25]: > 45 µM; MIC [26]: 20.7 µM; MIC [27]: 10.3 µM; IC50 [28]: > 7.5 µM; Ratio [29]: 1.075; MIC [30]: > 43 µM; MIC [31]: > 43 µM; MIC [32]: > 43 µM
CC(=O)NCC(=O)N[C@@H](Cc1ccccc1)C(=O)NC1(C(=O)NCC(=O)NC2(C(=O)N[C@@H](CCCNC(=N)N)C(=O)NC3(C(=O)NCC(=O)NC4(C(=O)N[C@@H](Cc5ccccc5)C(=O)NC5(C(=O)NCC(=O)NC6(C(=O)NCC(=O)N[C@@H](CCCNC(=N)N)C(=O)NC7(C(=O)N[C@@H](CCCNC(=N)N)C(=O)N[C@@H](CCCNC(=N)N)C(=O)N[C@@H](CCCNC(=N)N)C(=O)N[C@@H](CCCNC(=N)N)C(N)=O)CCCCC7)CCCCC6)CCCCC5)CCCCC4)CCCCC3)CCCCC2)CCCCC1 (Ac-GF[Ac6c]G[Ac6c]R[Ac6c]G[Ac6c]F[Ac6c]G[Ac6c]GR[Ac6c]RRRR-NH2),1.1 µM,6 µM,6.4 µM,2.55 µM,2.56 µM,5.6 µM,2.6 µM,40.8 µM,5 µM,5.09 µM,20.4 µM,6.4 µM,10.2 µM,1.28 µM,2.55 µM,> 41 µM,7.4 µM,2 µM,7 µM,2.55 µM,IC50 [24]: 6.4 µM; MIC [25]: 2.55 µM; MIC [26]: 40.8 µM; MIC [27]: 2.56 µM; IC50 [28]: 6.6 µM; MIC [30]: > 41 µM; MIC [31]: 5.09 µM; MIC [32]: 1.28 µM
